Data: ChEMBL document CHEMBL1158522, “Design, synthesis, and pharmacological evaluation of phenoxy pyridyl derivatives as dual norepinephrine reuptake inhibitors and 5-HT1A partial agonists” (Bioorg Med Chem Lett, 2010)

Legend:
[1] = biological target: T1, Sodium-dependent noradrenaline transporter (Homo sapiens, UniProt P23975); experiment: Displacement of [3H]nisoxetine from human NET expressed in HEK293 cells by scintillation proximity assay; type: cell-based
[2] = biological target: T2, Sodium-dependent serotonin transporter (Homo sapiens, UniProt P31645); experiment: Displacement of [3H]citalopram from human SERT expressed in HEK293 cells by scintillation proximity assay; type: cell-based
[3] = biological target: T3, Sodium-dependent dopamine transporter (Homo sapiens, UniProt Q01959); experiment: Displacement of [3H]WIN-35428 from human DAT expressed in HEK293 cells by scintillation proximity assay; type: cell-based
[4] = biological target: T4, 5-hydroxytryptamine receptor 1A (Homo sapiens, UniProt P08908); experiment: Displacement of [3H]8-OH-DPAT from human cloned 5HT1A receptor by filtration techniques
T4 sequence (P08908 whole entry): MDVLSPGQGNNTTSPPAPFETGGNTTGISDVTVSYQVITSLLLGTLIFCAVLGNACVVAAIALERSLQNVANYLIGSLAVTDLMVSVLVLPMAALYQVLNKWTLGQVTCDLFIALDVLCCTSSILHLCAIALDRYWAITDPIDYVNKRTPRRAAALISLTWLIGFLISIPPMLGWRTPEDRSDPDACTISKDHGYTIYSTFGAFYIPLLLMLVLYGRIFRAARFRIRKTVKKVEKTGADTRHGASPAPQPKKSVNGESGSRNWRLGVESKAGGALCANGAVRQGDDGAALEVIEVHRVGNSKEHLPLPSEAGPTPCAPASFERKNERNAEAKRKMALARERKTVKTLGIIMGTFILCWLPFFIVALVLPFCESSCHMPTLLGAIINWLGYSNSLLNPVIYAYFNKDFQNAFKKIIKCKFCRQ

[5] = biological target: T3, Sodium-dependent dopamine transporter; experiment: Agonist activity at DAT; type: functional
[6] = Ratio of EC50 for SERT to EC50 for NET
[7] = biological target: T2, Sodium-dependent serotonin transporter; experiment: Agonist activity at SERT; type: functional
[8] = biological target: T1, Sodium-dependent noradrenaline transporter; experiment: Agonist activity at NET; type: functional
[9] = biological target: T4, 5-hydroxytryptamine receptor 1A; experiment: Agonist activity at 5HT1A receptor by GTPgammaS assay; type: functional
[10] = biological target: T5, 5-hydroxytryptamine receptor 1A (Homo sapiens) (UniProt P08908); experiment: Intrinsic activity at 5HT1A receptor by GTPgammaS assay; type: functional
T5 sequence (whole entry): T4 sequence (P08908 whole entry)

[11] = tested on: Rattus norvegicus; experiment: Ex vivo NET occupancy in rat brain at 10 mg/kg, sc after 1 hr; type: functional; settings: route subcutaneous
[12] = Plasma concentration rat at 10 mg/kg, sc after 1 hr; type: ADME, organism-based; parameters: dose 10 mg/kg, route subcutaneous
[13] = tested on: Rattus norvegicus; experiment: Ex vivo 5HT1A receptor occupancy in rat brain at 10 mg/kg, sc after 1 hr; type: functional; settings: route subcutaneous

T2 sequence (P31645 whole entry): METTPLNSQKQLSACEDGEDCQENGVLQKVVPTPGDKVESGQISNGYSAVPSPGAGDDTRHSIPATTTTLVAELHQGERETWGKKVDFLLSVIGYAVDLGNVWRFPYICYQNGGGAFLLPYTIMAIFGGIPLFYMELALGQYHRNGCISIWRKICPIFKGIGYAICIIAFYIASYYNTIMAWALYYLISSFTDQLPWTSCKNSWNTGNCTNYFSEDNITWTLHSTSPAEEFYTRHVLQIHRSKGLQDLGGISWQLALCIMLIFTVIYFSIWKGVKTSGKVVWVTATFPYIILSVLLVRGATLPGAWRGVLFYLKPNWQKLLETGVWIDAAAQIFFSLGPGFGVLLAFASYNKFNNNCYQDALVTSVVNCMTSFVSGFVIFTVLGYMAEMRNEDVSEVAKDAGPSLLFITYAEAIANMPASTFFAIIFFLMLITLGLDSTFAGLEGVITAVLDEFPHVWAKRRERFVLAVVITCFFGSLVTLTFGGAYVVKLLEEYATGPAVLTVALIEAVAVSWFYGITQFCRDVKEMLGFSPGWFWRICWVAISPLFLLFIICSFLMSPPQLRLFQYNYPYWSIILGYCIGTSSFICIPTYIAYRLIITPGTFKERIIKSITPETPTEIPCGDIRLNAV
T3 sequence (Q01959 whole entry): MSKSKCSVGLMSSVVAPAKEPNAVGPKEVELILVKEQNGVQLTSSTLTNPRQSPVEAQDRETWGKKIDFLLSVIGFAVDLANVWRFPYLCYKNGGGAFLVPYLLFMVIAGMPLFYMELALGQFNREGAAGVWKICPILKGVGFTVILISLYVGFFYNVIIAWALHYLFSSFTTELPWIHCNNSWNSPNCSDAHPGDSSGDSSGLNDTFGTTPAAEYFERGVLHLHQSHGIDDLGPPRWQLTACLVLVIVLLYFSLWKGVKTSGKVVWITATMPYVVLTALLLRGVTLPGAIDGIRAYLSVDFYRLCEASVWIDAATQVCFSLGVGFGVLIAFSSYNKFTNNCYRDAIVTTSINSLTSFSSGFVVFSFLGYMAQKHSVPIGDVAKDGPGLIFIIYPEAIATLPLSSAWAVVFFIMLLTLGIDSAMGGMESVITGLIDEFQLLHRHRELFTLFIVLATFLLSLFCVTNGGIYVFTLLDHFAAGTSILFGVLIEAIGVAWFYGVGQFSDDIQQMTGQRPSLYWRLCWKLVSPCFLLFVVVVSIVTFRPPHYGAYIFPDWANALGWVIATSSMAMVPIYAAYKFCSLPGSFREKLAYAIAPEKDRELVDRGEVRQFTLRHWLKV
T1 sequence (P23975 whole entry): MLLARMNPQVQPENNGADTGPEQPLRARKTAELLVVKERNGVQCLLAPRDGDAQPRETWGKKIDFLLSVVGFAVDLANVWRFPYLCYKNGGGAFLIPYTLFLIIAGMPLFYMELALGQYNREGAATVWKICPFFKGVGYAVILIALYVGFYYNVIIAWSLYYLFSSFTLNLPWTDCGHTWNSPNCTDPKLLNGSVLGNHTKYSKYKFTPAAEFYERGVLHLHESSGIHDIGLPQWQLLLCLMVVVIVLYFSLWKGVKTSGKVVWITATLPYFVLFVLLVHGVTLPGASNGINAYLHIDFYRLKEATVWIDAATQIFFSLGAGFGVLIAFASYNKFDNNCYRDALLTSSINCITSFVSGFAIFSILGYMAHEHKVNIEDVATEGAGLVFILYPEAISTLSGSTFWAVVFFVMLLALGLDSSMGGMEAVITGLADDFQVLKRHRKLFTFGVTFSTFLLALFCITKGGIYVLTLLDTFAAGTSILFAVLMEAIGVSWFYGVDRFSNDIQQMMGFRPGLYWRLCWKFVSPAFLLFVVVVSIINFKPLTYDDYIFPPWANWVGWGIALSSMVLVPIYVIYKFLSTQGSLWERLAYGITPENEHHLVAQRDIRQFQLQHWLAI

Row | Compound | Ki [1] [µM] | Ki [2] [µM] | Ki [3] [µM] | Ki [4] [µM] | EC50 [5] [µM] | Ratio EC50 [6] | EC50 [7] [µM] | EC50 [8] [µM] | EC50 [9] [µM] | Intrinsic activity [10] [%] | concentration at 1 h [12] [ng/mL] | Activity [11] [%] | Activity [13] [%]
1 | Cc1ccc(Oc2ncccc2C2CCNCC2)c(F)c1 | 0.921 | 0.036 | > 6.14 | 0.0055 | – | – | – | – | – | – | – | – | –
2 | Fc1ccccc1Oc1ncccc1C1CCNCC1 | 0.536 | 0.728 | > 6.18 | 0.013 | – | – | – | – | – | – | – | – | –
3 | Cc1ccccc1Oc1ncccc1C1CCNCC1 | 0.33 | 0.292 | > 6.17 | 0.06 | – | – | – | – | – | – | – | – | –
4 | Fc1cccc(Oc2ncccc2C2CCNCC2)c1F | 1.81 | 0.109 | > 6.65 | 0.173 | – | – | – | – | – | – | – | – | –
5 | Clc1ccccc1Oc1ncccc1N1CCNCC1 | 0.747 | > 4.71 | > 6.32 | 0.0045 | – | – | – | – | – | – | – | – | –
6 | FC(F)(F)c1ccccc1Oc1ncccc1C1CCNCC1 | 0.14 | 0.203 | > 6.65 | 0.071 | – | – | – | – | – | – | – | – | –
7 | Cc1cccc(F)c1Oc1ncccc1C1CCNCC1 | 0.027 | 0.102 | > 6.37 | 0.01 | – | – | – | – | – | – | – | – | –
8 | Fc1cccc(Cl)c1Oc1ncccc1C1CCNCC1 | 0.033 | 0.194 | > 6.18 | 0.011 | 6.88 | 45 | 0.409 | 0.009 | 0.089 | 37 | 777 | 75.3 | 37.4
9 | Fc1cccc(F)c1Oc1ncccc1C1CCNCC1 | – | 1.85 | > 6.63 | 0.0072 | – | – | – | – | – | – | – | – | –
10 | Fc1ccc(Cl)c(Oc2ncccc2C2CCNCC2)c1 | 0.247 | 0.251 | > 6.22 | 0.017 | – | – | – | – | – | – | – | – | –
11 | Fc1cccc(Cl)c1Oc1ncccc1N1CCNCC1 | 0.663 | > 4.71 | > 6.32 | 0.0037 | – | – | – | – | – | – | – | – | –

Second part, led by results:

Row | Ki [1] [µM] | Ki [2] [µM] | Ki [3] [µM] | Ki [4] [µM] | EC50 [5] [µM] | Ratio EC50 [6] | EC50 [7] [µM] | EC50 [8] [µM] | EC50 [9] [µM] | Intrinsic activity [10] [%] | concentration at 1 h [12] [ng/mL] | Compound | Activity [11] [%] | Activity [13] [%]
12 | 0.074 | 0.057 | 5.15 | 0.016 | – | – | – | – | – | – | – | Clc1ccccc1Oc1ncccc1C1CCNCC1 | – | –
13 | 2.44 | – | 4.31 | 0.101 | – | – | – | – | – | – | – | c1ccc(Oc2ncccc2C2CCNCC2)cc1 | – | –
14 | 0.032 | 1.26 | 0.278 | 0.0046 | 0.498 | 33 | 0.915 | 0.028 | 0.341 | 84 | – | Fc1ccccc1Oc1cccc(F)c1C1CCNCC1 | – | –
15 | 0.025 | 0.002 | 0.31 | 0.037 | – | – | – | – | – | – | – | Clc1cccc(Oc2ncccc2C2CCNCC2)c1Cl | – | –
16 | 0.143 | 0.03 | 2.59 | 0.029 | – | – | – | – | – | – | – | Fc1ccc(Oc2ncccc2C2CCNCC2)c(F)c1 | – | –
17 | 0.413 | 0.0027 | > 5.5 | 0.037 | – | – | – | – | – | – | – | Clc1ccc(Oc2ncccc2C2CCNCC2)c(Cl)c1 | – | –
18 | 0.276 | 0.887 | 6.41 | 0.024 | – | – | – | – | – | – | – | COc1cccc(F)c1Oc1ncccc1C1CCNCC1 | – | –
19 | 0.292 | 0.61 | 6.41 | 0.092 | – | – | – | – | – | – | – | COc1ccccc1Oc1ncccc1C1CCNCC1 | – | –
